Source: ChEMBL document CHEMBL1201862, “PubChem BioAssay data set” (2004)
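Where inhibition never reached the appropriate level, the endpoint shown equals the highest concentration tested. Otherwise, values were interpolated linearly from a five-concentration, 48-hour dose response in 96-well plates. Abbreviation: GI50, concentration required for 50% inhibition of growth.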 Calls of active or inactive are those of the source. No stated cut-off is given here; in the data, active = GI50 up to about 1.1 µM and inactive = higher.

Key:
Test in all cases: NCI anticancer screen, dose series, 48 h
SK-MEL-5 = test system: SK-MEL-5
SK-OV-3 = test system: SK-OV-3
SR = test system: SR
NCI-H460 = test system: NCI-H460
HCC 2998 = test system: HCC 2998
OVCAR-4 = test system: OVCAR-4
MOLT-4 = test system: MOLT-4
SNB-75 = test system: SNB-75
TK-10 = test system: TK-10
HOP-18 = test system: HOP-18
UO-31 = test system: UO-31
Malme-3M = test system: Malme-3M
DMS-114 = test system: DMS-114
HCT-15 = test system: HCT-15
SF-268 = test system: SF-268
NCI-H522 = test system: NCI-H522
EKVX = test system: EKVX
ACHN = test system: ACHN
UACC-257 = test system: UACC-257
COLO 205 = test system: COLO 205
RXF 631 = test system: RXF 631
RPMI-8226 = test system: RPMI-8226
M14 = test system: M14
SW-620 = test system: SW-620
SK-MEL-2 = test system: SK-MEL-2
SNB-78 = test system: SNB-78
HT-29 = test system: HT-29
HOP-62 = test system: HOP-62
DMS-273 = test system: DMS-273
K562 = test system: K562
U-251 = test system: U-251
LOX IMVI = test system: LOX IMVI
SF-295 = test system: SF-295
XF498 = test system: XF498
HOP-92 = test system: HOP-92
HL-60 = test system: HL-60
SK-MEL-28 = test system: SK-MEL-28
NCI-H226 = test system: NCI-H226
OVCAR-5 = test system: OVCAR-5
LXFL 529 = test system: LXFL 529
SN12C = test system: SN12C
KM-20L2 = test system: KM-20L2
UACC-62 = test system: UACC-62
A498 = test system: A498
SNB-19 = test system: SNB-19
CCRF-CEM = test system: CCRF-CEM
RXF 393 = test system: RXF 393
DLD-1 = test system: DLD-1
OVCAR-3 = test system: OVCAR-3
HCT-116 = test system: HCT-116
IGROV-1 = test system: IGROV-1
A549 = test system: A549
SF-539 = test system: SF-539
OVCAR-8 = test system: OVCAR-8
786-0 = test system: 786-0
NCI-H23 = test system: NCI-H23
KM12 = test system: KM12
CAKI-1 = test system: CAKI-1
M19-MEL = test system: M19-MEL

CCCC1C[C@H]2CCCCN2[C@H]2CCCN12 (stereo partly drawn)
GI50 (SK-MEL-5): > 100 µM (inactive)
GI50 (SK-OV-3): > 100 µM (inactive)
GI50 (SR): > 40.6 µM (inactive)
GI50 (NCI-H460): > 66.4 µM (inactive)
GI50 (HCC 2998): > 100 µM (inactive)
GI50 (OVCAR-4): > 100 µM (inactive)
GI50 (MOLT-4): > 100 µM (inactive)
GI50 (SNB-75): > 100 µM (inactive)
GI50 (TK-10): > 100 µM (inactive)
GI50 (HOP-18): > 100 µM (inactive)
GI50 (UO-31): > 100 µM (inactive)
GI50 (Malme-3M): > 100 µM (inactive)
GI50 (DMS-114): > 51.5 µM (inactive)
GI50 (HCT-15): > 46.7 µM
GI50 (SF-268): > 100 µM (inactive)
GI50 (NCI-H522): > 100 µM (inactive)
GI50 (EKVX): > 100 µM (inactive)
GI50 (ACHN): > 100 µM (inactive)
GI50 (UACC-257): > 100 µM (inactive)
GI50 (COLO 205): > 47.4 µM (inactive)
GI50 (RXF 631): > 100 µM (inactive)
GI50 (RPMI-8226): > 43.4 µM (inactive)
GI50 (M14): > 100 µM (inactive)
GI50 (SW-620): > 37.8 µM (inactive)
GI50 (SK-MEL-2): > 100 µM (inactive)
GI50 (SNB-78): > 100 µM (inactive)
GI50 (HT-29): > 100 µM (inactive)
GI50 (HOP-62): > 100 µM (inactive)
GI50 (DMS-273): > 61.9 µM (inactive)
GI50 (K562): > 50.2 µM (inactive)
GI50 (U-251): > 44.4 µM (inactive)
GI50 (LOX IMVI): > 39.4 µM (inactive)
GI50 (SF-295): > 100 µM (inactive)
GI50 (XF498): > 100 µM (inactive)
GI50 (HOP-92): > 100 µM (inactive)
GI50 (HL-60): > 37.8 µM (inactive)
GI50 (SK-MEL-28): > 100 µM (inactive)
GI50 (NCI-H226): > 100 µM (inactive)
GI50 (OVCAR-5): > 100 µM (inactive)
GI50 (LXFL 529): > 69.3 µM (inactive)
GI50 (SN12C): > 100 µM (inactive)
GI50 (KM-20L2): > 88.3 µM (inactive)
GI50 (UACC-62): > 100 µM (inactive)
GI50 (A498): > 100 µM (inactive)
GI50 (SNB-19): > 100 µM (inactive)
GI50 (CCRF-CEM): > 45.9 µM (inactive)
GI50 (RXF 393): > 48.2 µM (inactive)
GI50 (DLD-1): > 50.4 µM (inactive)
GI50 (OVCAR-3): > 100 µM (inactive)
GI50 (HCT-116): > 45.2 µM (inactive)
GI50 (IGROV-1): > 100 µM (inactive)
GI50 (A549): > 87.1 µM (inactive)
GI50 (SF-539): > 100 µM (inactive)
GI50 (OVCAR-8): > 100 µM (inactive)
GI50 (786-0): > 100 µM (inactive)
GI50 (NCI-H23): > 100 µM (inactive)
GI50 (KM12): > 100 µM (inactive)
GI50 (CAKI-1): > 100 µM (inactive)

O=C(O)CCC1CCc2cccc(O)c2C1=O (stereo not drawn)
GI50 (SK-OV-3): > 100 µM (inactive)
GI50 (NCI-H460): > 100 µM (inactive)
GI50 (OVCAR-4): > 100 µM (inactive)
GI50 (MOLT-4): > 100 µM (inactive)
GI50 (HOP-18): > 100 µM (inactive)
GI50 (M19-MEL): > 100 µM (inactive)
GI50 (DMS-114): > 100 µM (inactive)
GI50 (HCT-15): > 100 µM
GI50 (ACHN): > 100 µM (inactive)
GI50 (COLO 205): > 100 µM (inactive)
GI50 (RXF 631): > 100 µM (inactive)
GI50 (RPMI-8226): > 100 µM (inactive)
GI50 (M14): > 100 µM (inactive)
GI50 (SNB-78): > 100 µM (inactive)
GI50 (DMS-273): > 100 µM (inactive)
GI50 (K562): > 100 µM (inactive)
GI50 (U-251): > 100 µM (inactive)
GI50 (LOX IMVI): > 100 µM (inactive)
GI50 (XF498): > 100 µM (inactive)
GI50 (HOP-92): > 100 µM (inactive)
GI50 (HL-60): > 100 µM (inactive)
GI50 (SK-MEL-28): > 100 µM (inactive)
GI50 (LXFL 529): > 100 µM (inactive)
GI50 (SN12C): > 100 µM (inactive)
GI50 (KM-20L2): > 100 µM (inactive)
GI50 (UACC-62): > 100 µM (inactive)
GI50 (A498): > 100 µM (inactive)
GI50 (SNB-19): > 100 µM (inactive)
GI50 (CCRF-CEM): > 100 µM (inactive)
GI50 (RXF 393): > 100 µM (inactive)
GI50 (IGROV-1): > 100 µM (inactive)
GI50 (SF-539): > 100 µM (inactive)
GI50 (NCI-H23): > 100 µM (inactive)

CN(C)/C(N)=N\C#N
GI50 (SK-MEL-5): > 100 µM (inactive)
GI50 (SK-OV-3): > 100 µM (inactive)
GI50 (NCI-H460): > 100 µM (inactive)
GI50 (HCC 2998): > 100 µM (inactive)
GI50 (OVCAR-4): > 100 µM (inactive)
GI50 (MOLT-4): > 100 µM (inactive)
GI50 (SNB-75): > 100 µM (inactive)
GI50 (TK-10): > 100 µM (inactive)
GI50 (HOP-18): > 100 µM (inactive)
GI50 (UO-31): > 100 µM (inactive)
GI50 (Malme-3M): > 100 µM (inactive)
GI50 (M19-MEL): 83.6 µM (inactive)
GI50 (DMS-114): 93.8 µM (inactive)
GI50 (HCT-15): 18.9 µM
GI50 (SF-268): > 100 µM (inactive)
GI50 (NCI-H522): > 100 µM (inactive)
GI50 (EKVX): > 100 µM (inactive)
GI50 (ACHN): > 100 µM (inactive)
GI50 (UACC-257): > 100 µM (inactive)
GI50 (COLO 205): 59.4 µM (inactive)
GI50 (RXF 631): > 100 µM (inactive)
GI50 (RPMI-8226): 64.7 µM (inactive)
GI50 (M14): > 100 µM (inactive)
GI50 (SW-620): 21 µM (inactive)
GI50 (SK-MEL-2): > 100 µM (inactive)
GI50 (SNB-78): > 100 µM (inactive)
GI50 (HT-29): > 100 µM (inactive)
GI50 (HOP-62): > 100 µM (inactive)
GI50 (DMS-273): > 100 µM (inactive)
GI50 (K562): > 100 µM (inactive)
GI50 (U-251): > 100 µM (inactive)
GI50 (SF-295): > 100 µM (inactive)
GI50 (HOP-92): > 100 µM (inactive)
GI50 (HL-60): > 100 µM (inactive)
GI50 (SK-MEL-28): > 100 µM (inactive)
GI50 (NCI-H226): > 100 µM (inactive)
GI50 (OVCAR-5): > 100 µM (inactive)
GI50 (LXFL 529): > 100 µM (inactive)
GI50 (SN12C): > 100 µM (inactive)
GI50 (KM-20L2): > 100 µM (inactive)
GI50 (UACC-62): > 100 µM (inactive)
GI50 (A498): > 100 µM (inactive)
GI50 (SNB-19): > 100 µM (inactive)
GI50 (RXF 393): 17.5 µM (inactive)
GI50 (DLD-1): 48.9 µM (inactive)
GI50 (OVCAR-3): > 100 µM (inactive)
GI50 (HCT-116): > 100 µM (inactive)
GI50 (IGROV-1): > 100 µM (inactive)
GI50 (A549): > 100 µM (inactive)
GI50 (SF-539): > 100 µM (inactive)
GI50 (OVCAR-8): > 100 µM (inactive)
GI50 (786-0): > 100 µM (inactive)
GI50 (NCI-H23): > 100 µM (inactive)
GI50 (KM12): > 100 µM (inactive)
GI50 (CAKI-1): > 100 µM (inactive)

CCOCNC(=O)N(COCC)COCC
GI50 (SK-OV-3): > 100 µM (inactive)
GI50 (HCC 2998): > 100 µM (inactive)
GI50 (MOLT-4): > 100 µM (inactive)
GI50 (SNB-75): > 100 µM (inactive)
GI50 (UO-31): > 100 µM (inactive)
GI50 (Malme-3M): > 100 µM (inactive)
GI50 (M19-MEL): > 100 µM (inactive)
GI50 (DMS-114): > 100 µM (inactive)
GI50 (HCT-15): > 100 µM
GI50 (SF-268): > 100 µM (inactive)
GI50 (NCI-H522): > 100 µM (inactive)
GI50 (EKVX): > 100 µM (inactive)
GI50 (ACHN): > 100 µM (inactive)
GI50 (UACC-257): > 100 µM (inactive)
GI50 (COLO 205): > 100 µM (inactive)
GI50 (RXF 631): > 100 µM (inactive)
GI50 (RPMI-8226): > 100 µM (inactive)
GI50 (M14): > 100 µM (inactive)
GI50 (SW-620): > 100 µM (inactive)
GI50 (SK-MEL-2): > 100 µM (inactive)
GI50 (SNB-78): > 100 µM (inactive)
GI50 (HT-29): > 100 µM (inactive)
GI50 (HOP-62): > 100 µM (inactive)
GI50 (K562): > 100 µM (inactive)
GI50 (LOX IMVI): > 100 µM (inactive)
GI50 (SF-295): > 100 µM (inactive)
GI50 (XF498): > 100 µM (inactive)
GI50 (HL-60): > 100 µM (inactive)
GI50 (SK-MEL-28): > 100 µM (inactive)
GI50 (NCI-H226): > 100 µM (inactive)
GI50 (OVCAR-5): > 100 µM (inactive)
GI50 (LXFL 529): > 100 µM (inactive)
GI50 (SN12C): > 100 µM (inactive)
GI50 (KM-20L2): > 100 µM (inactive)
GI50 (UACC-62): > 100 µM (inactive)
GI50 (A498): > 100 µM (inactive)
GI50 (SNB-19): > 100 µM (inactive)
GI50 (CCRF-CEM): > 100 µM (inactive)
GI50 (DLD-1): > 100 µM (inactive)
GI50 (OVCAR-3): 33 µM (inactive)
GI50 (HCT-116): > 100 µM (inactive)
GI50 (IGROV-1): > 100 µM (inactive)
GI50 (A549): > 100 µM (inactive)
GI50 (SF-539): > 100 µM (inactive)
GI50 (OVCAR-8): > 100 µM (inactive)
GI50 (KM12): > 100 µM (inactive)
GI50 (CAKI-1): > 100 µM (inactive)
